Assay results published in the supplement of paper PMC10307832.

Columns and labels:
Assay in all cases: relative viability (nuclei count vs DMSO), 5 days (fraction); higher = more cells survive
Navitoclax = compound: CC1(C)CCC(c2ccc(Cl)cc2)=C(CN2CCN(c3ccc(C(=O)NS(=O)(=O)c4ccc(N[C@H](CCN5CCOCC5)CSc5ccccc5)c(S(=O)(=O)C(F)(F)F)c4)cc3)CC2)C1 [Navitoclax]
Procedure, shortened: (§1)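 Vehicle-anchored 1536-well plates of lung cancer cell lines, held overnight at 37 °C, were pinned with five library-drug doses (not always all listed) spaced by √10. No medium change followed over the next 5 days, after which the cells were fixed, permeabilised and Hoechst-stained together and imaged at 4×. Nuclei were counted with MetaXpress, and viability is treated-well nuclei over vehicle-well nuclei, taken as a median across plates. Plates passed with control CV below 25% and at least one doubling.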

C-75 = compound: CCCCCCCC[C@H]1[C@@H](C(=C)C(=O)O1)C(=O)O [C-75]
Procedure, shortened: as §1

AZD7762 = compound: NC(=O)Nc1cc(-c2cccc(F)c2)sc1C(=O)N[C@H]1CCCNC1 [AZD7762]
Procedure, shortened: as §1

[1] = compound: O=C(O)c1ccc(-c2c[nH]c3ncc(-c4ccccc4)cc23)cc1C1CCCC1
Procedure, shortened: as §1

XAV939 = compound: Oc1nc(-c2ccc(C(F)(F)F)cc2)nc2c1CSCC2 [XAV939]
Procedure, shortened: as §1

Cell Line	relative viability (Navitoclax; 0.005 µM)	relative viability (Navitoclax; 0.01581 µM)	relative viability (Navitoclax; 0.1581 µM)	relative viability (Navitoclax; 0.5 µM)	relative viability (Navitoclax; 0.5 µM, anchor plate)	relative viability (C-75; 0.08 µM)	relative viability (C-75; 0.253 µM)	relative viability (C-75; 0.8 µM)	relative viability (C-75; 2.53 µM)	relative viability (C-75; 8 µM)	relative viability (AZD7762; 0.01 µM)	relative viability (AZD7762; 0.03162 µM)	relative viability (AZD7762; 0.1 µM)	relative viability (AZD7762; 0.2 µM, anchor plate)	relative viability (AZD7762; 0.3162 µM)	relative viability (AZD7762; 1 µM)	relative viability ([1]; 0.04 µM)	relative viability ([1]; 0.1265 µM)	relative viability ([1]; 0.4 µM)	relative viability ([1]; 1.265 µM)	relative viability (XAV939; 0.08 µM)	relative viability (XAV939; 0.253 µM)	relative viability (XAV939; 0.8 µM)	relative viability (XAV939; 2.53 µM)	relative viability (Navitoclax; 0.05 µM)
NCI-H2087	1.01	1.16	1.01	1.09	0.952	1.06	0.963	0.941	0.915	0.924	1.02	1.08	1.26	1.24	1.23	1.24	1.12	1.14	1.04	0.794	1.32	0.781	1.07	0.849	–
NCI-H2126	1.04	1.07	0.927	0.976	0.852	0.949	1.14	0.957	0.919	0.943	0.972	1.07	1.05	1.01	1.02	1.09	1.1	1	0.992	0.923	1.01	0.826	0.822	0.807	0.901
NCI-H2170	1.02	1.06	0.935	0.748	0.636	0.984	0.94	0.943	0.913	0.954	1	1.01	1.02	0.858	0.989	0.972	1.01	1	0.937	0.904	0.937	0.886	0.939	0.785	1.06
NCI-H2228	0.965	1.01	0.968	1.11	0.968	0.969	1.09	0.952	0.986	1.06	1.17	0.982	0.997	–	0.649	0.361	0.942	1.09	0.924	0.639	1.01	0.811	0.921	0.88	–
NCI-H2342	1.01	0.999	0.961	1.01	–	0.924	0.988	0.833	0.857	1.04	0.903	1.1	0.983	0.514	0.997	1.04	0.943	0.985	0.979	1.1	1.04	0.794	0.781	0.508	0.938
NCI-H2347	1.02	1.12	1.02	1.03	0.757	0.991	1.09	0.973	0.862	1.02	1.16	1.04	1.24	0.812	1.21	0.922	1.1	1.08	1.02	0.906	1.19	0.978	0.964	0.84	0.906
